Test results: patent EP0353678B1, “FR-901154 and FR-901155 substances, a process for their production” (priority 1988, dated 1990)

Columns and labels:
[1] = system: Aspergillus niger IFO 4417; experiment: Antimicrobial activity against fungi, serial agar dilution method in Sabouraud agar; type: cell-based; set-up: unit not given here; conditions: 30°C for 24 hours
Description: Antimicrobial activities of the FR-901154 and FR-901155 Substances Antimicrobial activities of the FR-901154 and FR-901155 substances against various fungi were determined by a serial agar dilution method in a Sabouraud agar. Minimum inhibitory concentrations (MIC) were expressed in terms of »g/ml after incubation at 30°C for 24 hours. […]

[2] = Solubility (physical and chemical properties); type: physicochemical
Description: (23)/(D) [formula] : -74° (c = 1.8, CHCl₃) (8) Ultraviolet Absorption Spectrum: end absorption (9) Infrared Absorption Spectrum: [drawing 4] 3570, 3500, 2940, 2880, 2820, 1740, 1710, 1700, 1640, 1460, 1450, 1380, 1350, 1320, 1280, 1230, 1190, 1170, 1140, 1100, 1090, 1050, 1040, 1000, 990, 940, 910 cm⁻¹ (10) ¹³C Nuclear Magnetic Resonance Spectrum: δ(ppm, CDCl₃, 100MHz): [formula] [formula] (11) ¹H Nuclear Magnetic Resonance Spectrum: the chart of which being shown in Figure 3, (12) Thin Layer Chromatography: […]

Row | MIC Value [1] | Solubility ([2]; methanol, ethanol, acetone, ethyl acetate, chloroform, diethyl ether, benzene and acetonitrile) | Solubility ([2]; n-hexane and petroleum ether) | Solubility ([2]; water) | SMILES
1 | 0.025 |  |  |  | C=CCC1/C=C(\C)CC(C)CC(OC)C2OC(O)(C(=O)C(=O)N3CCCCC3C(=O)OC(/C(C)=C/C3CCC(O)C(O)C3)C(C)C(O)CC1=O)C(C)CC2OC (stereo not shown) [FR-901154]
2 |  | Soluble | Sparingly Soluble | Insoluble | CCCC1C=C(C)CC(C)CC(OC)C2OC(O)(C(=O)C(=O)N3CCCCC3C(=O)OC(C(C)=CC3CCC(O)C(OC)C3)C(C)C(O)CC1=O)C(C)CC2OC (stereo not shown) [FR-901156, 1,14-dihydroxy-12-[2-(4-hydroxy-3-methoxycyclohexyl)-1-methylvinyl]-23,25-dimethoxy-13,19,21,27-tetramethyl-17-propyl-11,28-dioxa-4-azatricyclo[22.3.1.0^4,9]octacos-18-ene-2,3,10,16-tetraone]
